Results on four molecules are retold here after patent publication US20100209513A1, “PHARMACEUTICAL COMPOSITION CONTAINING MICRONIZED PARTICLES OF NAPHTHOQUINONE-BASED COMPOUND” (priority 2007, published 2010).

Holding throughout (assay type): in vivo
The nature of assay [1]: Body weight change in ob/ob mice, micronized particles of 15,16-dihydrotanshinone (Example 12). To be noted: ob/ob male mice; 400 mg/kg plus sodium lauryl sulfate in admixture with the feed for 20 days. The protocol:
In order to confirm therapeutic efficacy of micronized particles of 15,16-dihydrotanshinone, an animal experiment was carried out as follows.
For this purpose, 10-week-old ob/ob male mice (Jackson Lab) as an obese mouse model of type 2 diabetes were purchased from Orient Co., Ltd., Korea and were allowed to acclimate to a new environment of the breeding room for 10 days prior to experiments. Animals were fed a solid feed (P5053, Labdiet) as a laboratory animal chow. The ob/ob male mice were housed and allowed to acclimate to a new environment for 10 days, in a breeding room maintained at a temperature of 22±2° C., humidity of 55±5%, and a 12-h light/dark (L/D) cycle (light from 8:00 am. to 8:00 p.m.). According to a randomized blocks design, the thus-acclimated animals were randomly divided into four groups, each consisting of 7 animals: a control group with no administration of any drug sample, a group with administration of a vehicle (sodium lauryl sulfate) only, a group with administration of 15,16-dihydrotanshinone (before microparticulation, 400 mg/kg) plus sodium lauryl sulfate, and a group with administration of micronized particles of 15,16-dihydrotanshinone (400 mg/kg) plus sodium lauryl sulfate. Each group of animals was given drug samples in admixture with the feed for 20 days. […]

A short description of assay [2]: Body weight change in DIO C57BL/6 mice, effect of phosphatidylcholine on micronized cryptotanshinone (Example 8). To be noted: DIO C57BL/6 male mice; cryptotanshinone 150 mg/kg PO for 40 days. The protocol:
In order to ascertain whether phosphatidylcholine (PC) which is a phospholipid maintains a particle size of micronized particles of cryptotanshinone, prevents the particle agglomeration or aggregation, and enhances therapeutic efficacy of cryptotanshinone, an animal experiment was carried out as follows.
For this purpose, 5-week-old C57BL/6 male mice were purchased from Orient Co., Ltd., Korea and were allowed to acclimate to a new environment of the breeding room for 10 days prior to experiments. A DIO (diet-induced obesity) mouse model was established by supplying to animals high-fat diet for 8 weeks. 13-week-old male mice weighing 40 g were used in experiments. Animals were fed a high-fat feed (45 kcal % fat) (D12451, Research Diets Inc., New Brunswick, N.J.) as a laboratory animal chow. The DIO mice were housed and allowed to acclimate to a new environment for 10 days, in a breeding room maintained at a temperature of 22±2° C., humidity of 55±5%, and a 12-h light/dark (L/D) cycle (light from 8:00 a.m. to 8:00 p.m.). […]

Assay [3] in a line: Body weight change in ob/ob mice, effect of chitosan on micronized cryptotanshinone (Example 10). As to conditions: ob/ob male mice; cryptotanshinone 400 mg/kg in admixture with the feed for 20 days. The method, then:
In order to ascertain whether chitosan maintains a particle size of micronized particles of cryptotanshinone, prevents the particle agglomeration or aggregation, and enhances therapeutic efficacy of cryptotanshinone, an animal experiment was carried out as follows.
(§1) 10-week-old ob/ob male mice (Jackson Lab) as an obese mouse model of type 2 diabetes were purchased from Orient Co., Ltd., Korea and were allowed to acclimate to a new environment of the breeding room for 10 days prior to experiments. Animals were fed a solid feed (P5053, Labdiet) as a laboratory animal chow. The ob/ob male mice were housed and allowed to acclimate to a new environment for 10 days, in a breeding mom maintained at a temperature of 22±2° C., humidity of 55±5%, and a 12-h light/dark (L/D) cycle (light from 8:00 am. to 8:00 p.m.). According to a randomized blocks design, the thus-acclimated animals were randomly divided into four groups, each consisting of 7 animals: a control group with no administration of any drug sample, a group with administration of a vehicle (chitosan) only, a group with administration of cryptotanshinone (400 mg/kg), and a group with administration of cryptotanshinone (400 mg/kg) plus chitosan. Each group of animals was given drug samples in admixture with the feed for 20 days. All animals were allowed ad libitum access to water and standard laboratory chow throughout the study period.

The nature of assay [4]: Body weight change in ob/ob mice, effect of sucrose palmitate on micronized cryptotanshinone (Example 11). As to conditions: cryptotanshinone 400 mg/kg in admixture with the feed for 20 days. The protocol:
In order to ascertain whether sucrose palmitate which is an emulsifier maintains a particle size of micronized particles of cryptotanshinone, prevents the particle agglomeration or aggregation, and enhances therapeutic efficacy of cryptotanshinone, an animal experiment was carried out as follows.
as §1, with “room” for “mom”, “(sucrose palmitate)” for “(chitosan)”, “sucrose palmitate.” for “chitosan.”, “All animals were allowed ad libitum access to water and standard laboratory chow throughout the study period.” left out

Assay [5] in a line: Body weight change in ob/ob mice, effect of calcium silicate on micronized cryptotanshinone (Example 9). As to conditions: ob/ob male mice; cryptotanshinone 400 mg/kg in admixture with the feed for 20 days. The method, then: In order to ascertain whether calcium silicate maintains a particle size of micronized particles of cryptotanshinone, prevents the particle agglomeration or aggregation, and enhances therapeutic efficacy of cryptotanshinone, an animal experiment was carried out as follows.
as §1, with “room” for “mom”, “(calcium silicate)” for “(chitosan)”, “calcium silicate.” for “chitosan.”, “All animals were allowed ad libitum access to water and standard laboratory chow throughout the study period.” left out

Assay [6] is described as follows: Body weight change in ob/ob mice, intestine-targeted formulation of micronized β-lapachone (Example 14). As to conditions: ob/ob male mice; 200 mg/kg in terms of β-lapachone content PO once a day. The protocol:
In order to confirm therapeutic efficacy of β-lapachone {7,8-dihydro-2,2-dimethyl-2H-naphtho(2,3-b)dihydropyran-7,8-dione} when micronized particles of β-lapachone was prepared into a formulation of an intestine-targeted drug delivery system, an animal experiment was carried out as follows.
0.2 g of sodium lauryl sulfate (SLS) and 10 g of β-lapachone were mixed and ground. To the resulting mixture were added approximately an equal amount of a water-soluble polymer (hydroxypropyl methylcellulose) relative to β-lapachone, and vehicles such as Croscarmellose sodium and light anhydrous silicic acid, followed by spray drying. Then, the spray-dried product was added to an ethanol solution containing about 20% by weight of Eudragit S-100 as a pH-sensitive polymer and about 2% by weight of PEG #6,000 as a plasticizer, and the mixture was then spray-dried to prepare intestine-targeted formulations.
In order to confirm the efficacy of each formulation, 200 mg/kg of the formulation in terms of β-lapachone content was administered to ob/ob mice once a day and changes in the body weight (BW) of animals were examined.
For this purpose, 10-week-old ob/ob male mice (Jackson Lab) as an obese mouse model of type 2 diabetes were purchased from Orient Co., Ltd., Korea and were allowed to acclimate to a new environment of the breeding room for 10 days prior to experiments. […]

Assay [7] is described as follows: Body weight change in ob/ob mice, micronized particles of tanshinone IIA (Example 13). As to conditions: ob/ob male mice; 400 mg/kg plus sodium lauryl sulfate in admixture with the feed for 20 days. The protocol:
In order to confirm therapeutic efficacy of micronized particles of tanshinone IIA, an animal experiment was carried out as follows.
For this purpose, 10-week-old ob/ob male mice (Jackson Lab) as an obese mouse model of type 2 diabetes were purchased from Orient Co., Ltd., Korea and were allowed to acclimate to a new environment of the breeding room for 10 days prior to experiments. Animals were fed a solid feed (P5053, Labdiet) as a laboratory animal chow. The ob/ob male mice were housed and allowed to acclimate to a new environment for 10 days, in a breeding room maintained at a temperature of 22±2° C., humidity of 55±5%, and a 12-h light/dark (L/D) cycle (light from 8:00 am. to 8:00 p.m.). According to a randomized blocks design, the thus-acclimated animals were randomly divided into four groups, each consisting of 7 animals: a control group with no administration of any drug sample, a group with administration of a vehicle (sodium lauryl sulfate) only, a group with administration of tanshinone IIA (before microparticulation, 400 mg/kg) plus sodium lauryl sulfate, and a group with administration of micronized particles of tanshinone IIA (400 mg/kg) plus sodium lauryl sulfate. Each group of animals was given drug samples in admixture with the feed for 20 days. All animals were allowed ad libitum access to water and standard laboratory chow throughout the study period.

Turning to `Cc1cccc2c3c(ccc12)C1=C(C(=O)C3=O)C(C)CO1` (stereo not shown) [15,16-dihydrotanshinone], the “Final BW” value in assay [1] is on record as 55.4 ± 3.1 g.
Take `C[C@H]1COC2=C1C(=O)C(=O)c1c2ccc2c1CCCC2(C)C` [Cryptotanshinone alone, cryptotanshinone]: the “Final BW” value in assay [2] came out at 40.2 ± 1.3 g; in assay [3] it was 53.2 ± 1.3 g; in assay [4], 53.2 ± 1.3 g; in assay [5], 53.2 ± 1.3 g.
On to `CC1(C)CCC2=C(O1)c1ccccc1C(=O)C2=O` [Simply finely-divided powder, β-lapachone], for which, in assay [6], the “Final BW” value worked out at 57.5 ± 1.3 g.
For the molecule `Cc1coc2c1C(=O)C(=O)c1c-2ccc2c1CCCC2(C)C` [Tanshinone IIA before microparticulation, tanshinone IIA], the “Final BW” value in assay [7] was 58.4 ± 3.3 g.
